{"source": "patent US20200407382A1", "about": "“POLYMORPHIC FORMS OF (9-[(R)-2-[[(S)-[[(S)-1-(ISOPROPOXYCARBONYL)ETHYL]AMINO]PHENOXY PHOSPHINYL]METHOXY]PROPYL] ADENINE AND PHARMACEUTICALLY ACCEPTABLE SALTS THEREOF” (CIPLA LIMITED, priority 2017, published 2020)", "experimental": "FIG. 10 illustrates a dynamic vapor sorption (DVS) isotherm profile of Form C4 of (9-[(R)-2-[[(S)-[[(S)-1-(isopropoxycarbonyl)ethyl]amino] phenoxyphosphinyl] methoxy]propyl] adenine hemifumarate , according to another embodiment. For the DVS measurement a sample of crystalline Form C4 was cycled through changing humidity conditions to determine its hygroscopicity. The sample was analyzed using a Surface Measurement System DVS-1 Dynamic Vapor Sorption System. About 100 mg of crystalline Form C4 was placed into a mesh vapor sorption balance pan and loaded into a dynamic vapor sorption balance as part of the\nSurface Measurement System. Data was collected in 1-minute intervals. Nitrogen was used as the carrier gas. The sampled crystalline Form C4 was subjected to a ramping profile from 0-95% relative humidity (RH) at 5 and 10% increments, maintaining the sample at each step until a stable weight had been achieved (99.5% step completion). After completion of the Sorption cycle, the sample was dried using the same procedure, but all the way down to 95% RH to 30% RH (10% RH interval) and from 30% RH to 5% RH (5% RH interval). The weight change during the Sorption/desorption cycles were plotted, allowing for the hygroscopic nature of the sample to be determined.\n• 1. The hygroscopicity was studied at 25° C. using an SMS DVS intrinsic analyser. • 2. About 100 mg of sample was placed in a tared sample holder at an initial ambient room humidity. • 3. A total wet/dry nitrogen flow rate of 270 cc/min was used throughout the study. • 4. Solids were studied by performing one full cycle of the following program: 300 minutes of drying at 25° C. under dry N2, followed by settings of 0, 5, 10, 15, 20, 25, 30, 40, 50, 60, 70, 80, 90 and 95% RH, with exposure time at each humidity set point dependent upon 99.5% confidence in the F1 fit model or 60 minutes. The maximum time allowed at any one humidity set point was 60 minutes. Followed by decreasing 95% RH to 30% RH (10% RH interval) and from 30% RH to 5% RH (5% RH interval). […]. The sample was maintained under dry N2 after the cycle was completed. • 5. Percent weight gain was calculated based on the dry weight basis.", "data": [{"molecule": "CC(C)OC(=O)[C@H](C)N[P@](=O)(CO[C@H](C)Cn1cnc2c(N)ncnc21)Oc1ccccc1", "note": "[Form C4, (9-[(R)-2-[[(S)-[[(S)-1-(isopropoxycarbonyl)ethyl]amino]phenoxyphosphinyl]methoxy]propyl]adenine hemifumarate]", "values": [{"measurement": "hygroscopicity (DVS isotherm)", "setting": "25° C., 0-95% RH sorption/desorption cycles", "value": "non-hygroscopic"}, {"measurement": "hysteresis between sorption and desorption cycles", "setting": "DVS, 0-95% RH", "value": "very small hysteresis"}, {"measurement": "change of crystalline form during DVS (XRPD post DVS vs pre-DVS)", "setting": "XRPD pattern post DVS analysis compared with FIG. 4", "value": "no change in the crystalline Form C4"}, {"measurement": "increase in mass during the Sorption cycle", "setting": "between 0% and 95% RH, 25° C.", "value": "about 1.7%"}]}]}
